Consider one compound from ChEMBL document CHEMBL1165963, “Bryonolic acid: a large-scale isolation and evaluation of heme oxygenase 1 expression in activated macrophages” (2010).

The source made the active and inactive calls. No cut-off for these calls is given here.

For assay [1], the system named is RAW264.7. Description: Immunomodulatory effect in LPS-stimulated mouse RAW264.7 cells assessed as increase in heme oxygenase 1 expression at 50 uM after 24 hrs by Western blot relative to LPS. Type of assay: functional. (A western blot detects proteins with antibodies after separation by electrophoresis.)
In assay [2] the test system is RAW264.7. Description: Effect on COX2 expression in mouse RAW264.7 cells after 24 hrs by Western blot. Format: functional, cell-based.
The subject of assay [3] is RAW264.7. Description: Immunomodulatory effect in LPS-stimulated mouse RAW264.7 cells assessed as increase in heme oxygenase 1 expression at 50 uM after 24 hrs by Western blot relative to untreated control. Format: functional.
The subject of assay [4] is RAW264.7. Description: Immunomodulatory effect in LPS-stimulated mouse RAW264.7 cells assessed as increase in heme oxygenase 1 expression at 100 uM after 24 hrs by Western blot relative to untreated control. Type of assay: functional.
Assay [5] deals with RAW264.7. Description: Immunomodulatory effect in LPS-stimulated mouse RAW264.7 cells assessed as increase in heme oxygenase 1 expression after 24 hrs by Western blot. Type of assay: functional, cell-based.
Assay [6] has as its system RAW264.7. Description: Effect on iNOS expression in mouse RAW264.7 cells after 24 hrs by Western blot. Format: functional, cell-based.
Assay [7] concerns RAW264.7. Description: Immunomodulatory effect in LPS-stimulated mouse RAW264.7 cells assessed as increase in heme oxygenase 1 expression at 100 uM after 24 hrs by Western blot relative to LPS. Format: functional.

`CC1(C)[C@@H](O)CC[C@]2(C)C3=C(CC[C@@H]12)[C@@]1(C)CC[C@@]2(C)CC[C@@](C)(C(=O)O)C[C@H]2[C@]1(C)CC3` [BRYONOLIC ACID]: the “fold change (FC)” value in assay [1] is given as 3.3; in assay [3] it was 13; in assay [4] it was 55; in assay [7], 14. The outcome in assay [2] and in assay [6] was inactive. Further, the Activity result in assay [5] is “Dose-dependent effect”.
